# From patent US8188077B2, “Apoptosis-inducing agents for the treatment of cancer and immune and autoimmune diseases” (Abbott Laboratories, priority 2010, dated 2012)
# Biological target: T1, Bcl-2 protein (Homo sapiens, UniProt P10415, DELINS35-91DVEENRTEAPEGTESE, form not given)
# T1 construct: fused on or other part: Bcl-xL (Q07817) residues 29-44 stand in place of Bcl-2's own unstructured loop 35-91; The C-terminal membrane anchor (208-239) is absent
# Assay: Bcl-2 fluorescence polarization assay (FPA) binding
# Conditions: 10 nM Bcl-2 protein, 1 nM fluorescein-labeled BAX peptide, room temperature, read-out: Bcl-2 FPA 11pt Ki
# Description: Assays for the inhibition of Bcl-2 were performed in 96-well microtiter plates. Compounds of the instant invention were diluted in DMSO to concentrations between […] and 10 pM and introduced into each well of the plate. A mixture totaling 125 µL per well of assay buffer (20 mM phosphate buffer (pH 7.4), 1 mM EDTA, 0.05% PF-68), 10 nM of Bcl-2 protein (prepared according to the procedure described in PNAS 2001, 98, 3012-3017), 1 nM fluorescein-labeled BAX peptide (prepared in-house), and the DMSO solution of the compound of the instant invention was shaken for 2 minutes and placed in a LJL Analyst (LJL Bio Systems, CA. Polarization was measured at room temperature using a continuous Fluorescein lamp (excitation 485 nm, emission 530 nm). Ki values were calculated using Microsoft Excel.
# T1 sequence (P10415 with tags, fused parts or gaps with the stated changes): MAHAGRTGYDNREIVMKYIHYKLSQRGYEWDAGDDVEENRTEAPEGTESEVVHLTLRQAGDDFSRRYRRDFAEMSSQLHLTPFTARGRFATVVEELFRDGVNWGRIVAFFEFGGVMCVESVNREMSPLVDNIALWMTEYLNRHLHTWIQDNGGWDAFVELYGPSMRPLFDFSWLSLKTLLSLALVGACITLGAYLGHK
row,Compound,Ki [µM]
1,"CC1(C)[C@H]2CCC(Nc3ccccc3CN3CCN(c4ccc(C(=O)NS(=O)(=O)c5ccc(NCC6CCOCC6)c([N+](=O)[O-])c5)cc4)CC3)[C@@H]1C2 (stereo partly drawn) [Example 18, 4-[4-(2-{[(1R,5S)-6,6-dimethylbicyclo[3.1.1]hept-2-yl]amino}benzyl)piperazin-1-yl]-N-({3-nitro-4-[(tetrahydro-2H-pyran-4-ylmethyl)amino]phenyl}sulfonyl)benzamide]",< 0.02
2,"O=C(NS(=O)(=O)c1ccc(NCC2CCCCC2)c([N+](=O)[O-])c1)c1ccc(N2C[C@@H]3C[C@H]2CN3CC23CC4CC(CC(C4)C2)C3)cc1 [Example 11, 4-{(1S,4S)-5-[adamantan-1-ylmethyl]-2,5-diazabicyclo[2.2.1]hept-2-yl}-N-({4-[(cyclohexylmethyl)amino]-3-nitrophenyl}sulfonyl)benzamide]",1.3
3,"CC1(C)[C@H]2C=C(c3ccccc3CN3CCN(c4ccc(C(=O)NS(=O)(=O)c5ccc(NCC6CCOCC6)c([N+](=O)[O-])c5)cc4)CC3)[C@]1(C)CC2 [Example 15, N-({3-nitro-4-[(tetrahydro-2H-pyran-4-ylmethyl)amino]phenyl}sulfonyl)-4-(4-{2-[(1R,4R)-1,7,7-trimethylbicyclo[2.2.1]hept-2-en-2-yl]benzyl}piperazin-1-yl)benzamide]",< 0.02
4,"CC1(C)[C@H]2C=C(c3ccccc3C=C3CCN(c4ccc(C(=O)NS(=O)(=O)c5ccc(NCC6CCOCC6)c([N+](=O)[O-])c5)cc4)CC3)[C@]1(C)CC2 [Example 61, N-({3-nitro-4-[(tetrahydro-2H-pyran-4-ylmethyl)amino]phenyl}sulfonyl)-4-(4-{2-[(1R,4R)-1,7,7-trimethylbicyclo[2.2.1]hept-2-en-2-yl]benzylidene}piperidin-1-yl)benzamide]",< 0.02
5,"CC12CC3CC(C)(C1)CC(N1CCN(c4ccc(C(=O)NS(=O)(=O)c5ccc(NCC6CCCCC6)c([N+](=O)[O-])c5)cc4)CC1)(C3)C2 [Example 55, N-({4-[(cyclohexylmethyl)amino]-3-nitrophenyl}sulfonyl)-4-{4-[3,5-dimethyladamantan-1-yl]piperazin-1-yl}benzamide]",0.352
6,"O=C(NS(=O)(=O)c1ccc(NC2CCOCC2)c([N+](=O)[O-])c1)c1ccc(N2CCN(C(=O)CC34CC5CC(CC(C5)C3)C4)CC2)cc1 [Example 81, 4-{4-[adamantan-1-ylacetyl]piperazin-1-yl}-N-{[3-nitro-4-(tetrahydro-2H-pyran-4-ylamino)phenyl]sulfonyl}benzamide]",4.73
7,"O=C(NS(=O)(=O)c1ccc(NCC2CCOCC2)c([N+](=O)[O-])c1)c1ccc(N2CCN(Cc3ccccc3C3=CC4CC5CC(C4)CC3C5)CC2)cc1 [Example 34, N-({3-nitro-4-[(tetrahydro-2H-pyran-4-ylmethyl)amino]phenyl}sulfonyl)-4-(4-{2-[tricyclo[4.3.1.1^3,8]undec-4-en-4-yl]benzyl}piperazin-1-yl)benzamide]",0.0477
8,"CC1(C)OB(c2ccccc2CN2CCN(c3ccc(C(=O)NS(=O)(=O)c4ccc(NCC5CCOCC5)c([N+](=O)[O-])c4)cc3)CC2)OC1(C)C [Example 67, N-({3-nitro-4-[(tetrahydro-2H-pyran-4-ylmethyl)amino]phenyl}sulfonyl)-4-{4-[2-(4,4,5,5-tetramethyl-1,3,2-dioxaborolan-2-yl)benzyl]piperazin-1-yl}benzamide]",4.04
9,"C[C@@H]1[C@@H](NC(=O)C23CCC(C=C2c2ccccc2CN2CCN(c4ccc(C(=O)NS(=O)(=O)c5ccc(NCC6CCOCC6)c([N+](=O)[O-])c5)cc4)CC2)C3(C)C)C[C@H]2C[C@@H]1C2(C)C [Example 36, 7,7-dimethyl-2-{2-[(4-{4-[({3-nitro-4-[(tetrahydro-2H-pyran-4-ylmethyl)amino]phenyl}sulfonyl)carbamoyl]phenyl}piperazin-1-yl)methyl]phenyl}-N-[(1S,2S,3S,5R)-2,6,6-trimethylbicyclo[3.1.1]hept-3-yl]bicyclo[2.2.1]hept-2-ene-1-carboxamide]",0.121
10,"C[C@@H]1[C@@H](Nc2ccc(-c3ccc(C(=O)NS(=O)(=O)c4ccc(NCC5CCCCC5)c([N+](=O)[O-])c4)cc3)cc2)C[C@H]2C[C@@H]1C2(C)C [Example 6, N-({4-[(cyclohexylmethyl)amino]-3-nitrophenyl}sulfonyl)-4′-{[(1S,2S,3S,5R)-2,6,6-trimethylbicyclo[3.1.1]hept-3-yl]amino}biphenyl-4-carboxamide]",0.155
11,"Cc1cc(-c2ccccc2CN2CCN(c3ccc(C(=O)NS(=O)(=O)c4ccc(NCC5CCOCC5)c([N+](=O)[O-])c4)cc3)CC2)c2nc(C34CC5CC(CC(C5)C3)C4)cn2c1 [Example 25, 4-(4-{2-[2-(adamantan-1-yl)-6-methylimidazo[1,2-a]pyridin-8-yl]benzyl}piperazin-1-yl)-N-({3-nitro-4-[(tetrahydro-2H-pyran-4-ylmethyl)amino]phenyl}sulfonyl)benzamide]",0.979
12,"CC1(C)[C@@H]2CC[C@@]1(CS(=O)(=O)NC(=O)c1ccc(N3CCN(Cc4ccccc4-c4ccc(Cl)cc4)CC3)cc1)C(=O)C2 [Example 59, 4-{4-[(4′-chlorobiphenyl-2-yl)methyl]piperazin-1-yl}-N-({[(1S,4R)-7,7-dimethyl-2-oxobicyclo[2.2.1]hept-1-yl]methyl}sulfonyl)benzamide]",0.0667
13,"C[C@@H]1[C@@H](N(CCCc2ccccc2)c2ccc(-c3ccc(C(=O)NS(=O)(=O)c4ccc(NCC5CCCCC5)c([N+](=O)[O-])c4)cc3)cc2)C[C@H]2C[C@@H]1C2(C)C [Example 7, N-({4-[(cyclohexylmethyl)amino]-3-nitrophenyl}sulfonyl)-4′-{(3-phenylpropyl)[(1S,2S,3S,5R)-2,6,6-trimethylbicyclo[3.1.1]hept-3-yl]amino}biphenyl-4-carboxamide]",1.26
14,"O=C(NS(=O)(=O)c1ccc(NCC2CCCCC2)c([N+](=O)[O-])c1)c1ccc(N2CCN(CC34CC5CC(CC(C5)C3)C4)CC2)cc1 [Example 47, 4-{4-[adamantan-1-ylmethyl]piperazin-1-yl}-N-({4-[(cyclohexylmethyl)amino]-3-nitrophenyl}sulfonyl)benzamide]",0.0669
15,"O=C(NS(=O)(=O)c1ccc(NC2CCOCC2)c([N+](=O)[O-])c1)c1ccc(N2CCN(C(=O)C34CC5CC(CC(C5)C3)C4)CC2)cc1 [Example 41, 4-{4-[adamantan-1-ylcarbonyl]piperazin-1-yl}-N-{[3-nitro-4-(tetrahydro-2H-pyran-4-ylamino)phenyl]sulfonyl}benzamide]",5.19
16,"O=C(NS(=O)(=O)c1ccc(NCC2CCCCC2)c([N+](=O)[O-])c1)c1ccc(N2CCN(CC(=O)C34CC5CC(CC(C5)C3)C4)CC2)cc1 [Example 49, 4-(4-{2-[adamantan-1-yl]-2-oxoethyl}piperazin-1-yl)-N-({4-[(cyclohexylmethyl)amino]-3-nitrophenyl}sulfonyl)benzamide]",0.342
17,"O=C(NS(=O)(=O)c1ccc(NC2CCOCC2)c([N+](=O)[O-])c1)c1ccc(N2CCC(NC(=O)C34CC5CC(CC(C5)C3)C4)CC2)cc1 [Example 83, N-{1-[4-({[3-nitro-4-(tetrahydro-2H-pyran-4-ylamino)phenyl]sulfonyl}carbamoyl)phenyl]piperidin-4-yl}adamantane-1-carboxamide]",> 6.25
18,"CC1(C)CCC(NCC2C3CC4CC(C3)CC2C4)C(CN2CCN(c3ccc(C(=O)NS(=O)(=O)c4ccc(NCC5CCOCC5)c([N+](=O)[O-])c4)cc3)CC2)C1 (stereo not shown) [Example 20, 4-{4-[(2-{[adamantan-2-ylmethyl]amino}-5,5-dimethylcyclohexyl)methyl]piperazin-1-yl}-N-({3-nitro-4-[(tetrahydro-2H-pyran-4-ylmethyl)amino]phenyl}sulfonyl)benzamide]",> 51.9
19,"O=C(NS(=O)(=O)c1ccc(NCC2CCOCC2)c([N+](=O)[O-])c1)c1ccc(N2CCN(Cc3ccccc3C3=CC4CC3C3CCCC43)CC2)cc1 (stereo not shown) [Example 23, 4-(4-{2-[2,3,3a,4,7,7a-hexahydro-1H-4,7-methanoinden-5-yl]benzyl}piperazin-1-yl)-N-({3-nitro-4-[(tetrahydro-2H-pyran-4-ylmethyl)amino]phenyl}sulfonyl)benzamide]",< 0.02
20,"C[C@H]1[C@H]2C[C@H](CC2Nc2ccccc2CN2CCN(c3ccc(C(=O)NS(=O)(=O)c4ccc(NCC5CCOCC5)c([N+](=O)[O-])c4)cc3)CC2)C1(C)C (stereo partly drawn) [Example 17, N-({3-nitro-4-[(tetrahydro-2H-pyran-4-ylmethyl)amino]phenyl}sulfonyl)-4-[4-(2-{[(1R,4R,6S)-5,5,6-trimethylbicyclo[2.2.1]hept-2-yl]amino}benzyl)piperazin-1-yl]benzamide]",0.0301
21,"O=C(NS(=O)(=O)c1ccc(NCC2CCOCC2)c([N+](=O)[O-])c1)c1ccc(N2CCC(=Cc3ccccc3-c3cn(C45CC6CC(CC(C6)C4)C5)nc3C(=O)N(c3ccccc3)c3ccccc3)CC2)cc1 [Example 69, 1-[adamantan-1-yl]-4-{2-[(1-{4-[({3-nitro-4-[(tetrahydro-2H-pyran-4-ylmethyl)amino]phenyl}sulfonyl)carbamoyl]phenyl}piperidin-4-ylidene)methyl]phenyl}-N,N-diphenyl-1H-pyrazole-3-carboxamide]",0.789
22,"O=C(NS(=O)(=O)c1ccc(NCC2CCOCC2)c([N+](=O)[O-])c1)c1ccc(N2CCC(=Cc3ccccc3-c3ccc(-c4nc(C56CC7CC(CC(C7)C5)C6)cs4)s3)CC2)cc1 [Example 74, 4-[4-(2-{5-[4-(adamantan-1-yl)-1,3-thiazol-2-yl]-2-thienyl}benzylidene)piperidin-1-yl]-N-({3-nitro-4-[(tetrahydro-2H-pyran-4-ylmethyl)amino]phenyl}sulfonyl)benzamide]",0.102
